Reference: US11395847B2, “Acylated GLP-1/GLP-2 dual agonists” (Zealand Pharma A/S, priority 2016, dated 2022)
Read-outs that look alike come from different tables or passages of the source. *1 amine or outer side, *2 acyl side, *3 side chain or, on linkers, in order; H or OH if unused. Where a SMILES comes first, the peptide text is derived from it. Side-chain parts run from the residue outwards. [ ]: non-standard residue; d: D form. The star is where a group is joined. C20 diacid = O=C(O)CCCCCCCCCCCCCCCCCCC(=O)*; γGlu = O=C(O)[C@H](CCC(=O)[*:2])N[*:1]; AEEA = NCCOCCOCC(=O)O; Aib = CC(C)(N)C(=O)O

Key:
[1] = Solubility assessment (turbidity absorbance at 325 nm); assay type: physicochemical
Procedure: A stock solution of the test peptide (2 mg/ml; determined from the weighed amount of peptide) in demineralized water adjusted to pH 2.5 with HCl was prepared, and aliquots were diluted 1:1 in 100 mM acetate buffer (pH 4.0 and pH 5.0), 100 mM histidine buffer (pH 6.0 and pH 7.0) and 100 mM phosphate buffer (pH 6.0, pH 7.0 and pH 7.5), respectively, and loaded in a standard flat-bottom, non-sterile 96-well UV Microplate. The absorbance of samples (single samples, n=1) at 280 and 325 nm was measured in an absorbance-based plate reader, which was preheated to ambient temperature (typically 25° C.).

[2] = Chemical stability (RP-HPLC normalized purity after incubation at 40° C.); assay type: physicochemical; conditions: pH 7, 40° C., 14-day incubation, 0.2 mg/ml, normalized purity (area-%)
Procedure: Samples of each test peptide were dissolved in MILLIQ™ water, and the pH of the solution was adjusted to pH 6, 7, 7.5 or 9 using either HCl or NaOH. The final peptide concentration was 0.2 mg/ml. Samples were placed in glass vials and incubated at 40° C. The samples were analyzed by RP-HPLC on a C18 column with gradient elution using an acetonitrile/TFA/water eluent system. The area-percentage (area-%) of the main peak after incubation time T=t (relative to time T=0) was determined by UV spectroscopy at 220 nm.
The purity was first determined as follows: Purity(area-%)=(area of main peak/total area of all peaks)×100.
The purity was then normalized between time points by setting purity at time 0 (T=0) to 100 for each pH value for a given peptide, as follows: Normalized area-% at time t(T=t)=[area-%(T=t)/area-%(T=0)]×100.
The chemical stability assessment results after 14-day incubation (in the form of normalized purity values) are summarized in Table 4.

[3] = 100 mM acetate buffer pH 4.0, ambient temperature, read-out: Solubility Acetate buffer pH 4
[4] = 100 mM acetate buffer pH 5.0, ambient temperature, read-out: Solubility Acetate buffer pH 5
[5] = 100 mM histidine buffer pH 6.0, ambient temperature, read-out: Solubility Histidine buffer pH 6
[6] = 100 mM histidine buffer pH 7.0, ambient temperature, read-out: Solubility Histidine buffer pH 7
[7] = 100 mM phosphate buffer pH 6.0, ambient temperature, read-out: Solubility Phosphate buffer pH 6
[8] = 100 mM phosphate buffer pH 7.0, ambient temperature, read-out: Solubility Phosphate buffer pH 7
[9] = 100 mM phosphate buffer pH 7.5, ambient temperature, read-out: Solubility Phosphate buffer pH 7.5

solubility [1, 3]	solubility [1, 4]	solubility [1, 5]	solubility [1, 6]	solubility [1, 7]	solubility [1, 8]	solubility [1, 9]	pH 7 normalized stability [2]	Compound
< 1000 µg/mL	< 1000 µg/mL	≥ 1000 µg/mL	≥ 1000 µg/mL	≥ 1000 µg/mL	≥ 1000 µg/mL	≥ 1000 µg/mL	A (>90% normalised stability)	CC[C@H](C)[C@H](NC(=O)[C@H](Cc1ccccc1)NC(=O)[C@H](CC(=O)O)NC(=O)[C@H](CCCNC(=N)N)NC(=O)[C@H](C)NC(=O)[C@H](C)NC(=O)[C@H](CCC(N)=O)NC(=O)[C@H](CCCCNC(=O)CC[C@H](NC(=O)CCCCCCCCCCCCCCCCC(=O)O)C(=O)O)NC(=O)[C@H](CC(=O)O)NC(=O)[C@H](CC(C)C)NC(=O)[C@@H](NC(=O)[C@@H](NC(=O)[C@H](C)NC(=O)[C@H](CC(C)C)NC(=O)[C@H](CCC(=O)O)NC(=O)[C@H](CO)NC(=O)[C@@H](NC(=O)[C@H](Cc1ccccc1)NC(=O)[C@H](CO)NC(=O)CNC(=O)[C@H](CCC(=O)O)NC(=O)C(C)(C)NC(=O)[C@@H](N)Cc1c[nH]cn1)[C@@H](C)O)[C@@H](C)O)[C@@H](C)CC)C(=O)N[C@@H](C)C(=O)N[C@@H](Cc1c[nH]c2ccccc12)C(=O)N[C@@H](CC(C)C)C(=O)N[C@H](C(=O)N[C@@H](CC(C)C)C(=O)N[C@@H](Cc1c[nH]cn1)C(=O)N[C@@H](CCCCN)C(=O)N[C@H](C(=O)N[C@H](C(=O)N[C@@H](CC(=O)O)C(=O)O)[C@@H](C)O)[C@@H](C)CC)[C@@H](C)CC [Compound 28] (HELM PEPTIDE1{H.[Aib].E.G.S.F.T.S.E.L.A.T.I.L.D.K.Q.A.A.R.D.F.I.A.W.L.I.L.H.K.I.T.D}|PEPTIDE2{[O=C(O)CCCCCCCCCCCCCCCCC(=O)[*:2]].[gGlu]}$PEPTIDE1,PEPTIDE2,16:R3-2:R2$$$V2.0)
≥ 1000 µg/mL	< 1000 µg/mL	< 1000 µg/mL	≥ 1000 µg/mL	< 1000 µg/mL	≥ 1000 µg/mL	≥ 1000 µg/mL	A (>90% normalised stability)	CC[C@H](C)[C@H](NC(=O)[C@H](Cc1ccccc1)NC(=O)[C@H](CC(=O)O)NC(=O)[C@H](CCCNC(=N)N)NC(=O)[C@H](C)NC(=O)[C@H](C)NC(=O)[C@H](CCC(N)=O)NC(=O)[C@H](CCCCNC(=O)CC[C@H](NC(=O)CCCCCCCCCCCCCCCCC(=O)O)C(=O)O)NC(=O)[C@H](CC(=O)O)NC(=O)[C@H](CC(C)C)NC(=O)[C@@H](NC(=O)[C@@H](NC(=O)[C@H](C)NC(=O)[C@H](CC(C)C)NC(=O)[C@H](CCC(=O)O)NC(=O)[C@H](CO)NC(=O)[C@@H](NC(=O)[C@H](Cc1ccccc1)NC(=O)[C@H](CO)NC(=O)CNC(=O)[C@H](CCC(=O)O)NC(=O)C(C)(C)NC(=O)[C@@H](N)Cc1c[nH]cn1)[C@@H](C)O)[C@@H](C)O)[C@@H](C)CC)C(=O)N[C@@H](C)C(=O)N[C@@H](Cc1c[nH]c2ccccc12)C(=O)N[C@@H](CC(C)C)C(=O)N[C@H](C(=O)N[C@@H](Cc1c[nH]cn1)C(=O)N[C@@H](Cc1c[nH]cn1)C(=O)N[C@@H](CCCCN)C(=O)N[C@H](C(=O)N[C@H](C(=O)N[C@@H](CC(=O)O)C(=O)O)[C@@H](C)O)[C@@H](C)CC)[C@@H](C)CC [Compound 26] (HELM PEPTIDE1{H.[Aib].E.G.S.F.T.S.E.L.A.T.I.L.D.K.Q.A.A.R.D.F.I.A.W.L.I.H.H.K.I.T.D}|PEPTIDE2{[O=C(O)CCCCCCCCCCCCCCCCC(=O)[*:2]].[gGlu]}$PEPTIDE1,PEPTIDE2,16:R3-2:R2$$$V2.0)
–	–	–	–	–	–	–	A (>90% normalised stability)	CC[C@H](C)[C@H](NC(=O)[C@H](Cc1ccccc1)NC(=O)[C@H](CC(=O)O)NC(=O)[C@H](CCCCNC(=O)COCCOCCNC(=O)[C@H](CCCCN)NC(=O)[C@H](CCC(=O)O)NC(=O)[C@H](CCCCN)NC(=O)CC[C@H](NC(=O)CCCCCCCCCCCCCCCCCCC(=O)O)C(=O)O)NC(=O)[C@H](C)NC(=O)[C@H](C)NC(=O)[C@H](CCCCN)NC(=O)[C@H](C)NC(=O)[C@H](CC(=O)O)NC(=O)[C@H](CC(C)C)NC(=O)[C@@H](NC(=O)[C@@H](NC(=O)[C@H](C)NC(=O)[C@H](CC(C)C)NC(=O)[C@H](CCC(=O)O)NC(=O)[C@H](CO)NC(=O)[C@@H](NC(=O)[C@H](Cc1ccccc1)NC(=O)[C@H](CO)NC(=O)CNC(=O)[C@H](CCC(=O)O)NC(=O)C(C)(C)NC(=O)[C@@H](N)Cc1c[nH]cn1)[C@@H](C)O)[C@@H](C)O)[C@@H](C)CC)C(=O)N[C@@H](C)C(=O)N[C@@H](Cc1c[nH]c2ccccc12)C(=O)N[C@@H](CC(C)C)C(=O)N[C@H](C(=O)N[C@@H](CCC(=O)O)C(=O)N[C@@H](Cc1c[nH]cn1)C(=O)N[C@@H](CCCCN)C(=O)N[C@H](C(=O)N[C@H](C(=O)N[C@@H](CC(=O)O)C(=O)O)[C@@H](C)O)[C@@H](C)CC)[C@@H](C)CC [Compound 68] (HELM PEPTIDE1{H.[Aib].E.G.S.F.T.S.E.L.A.T.I.L.D.A.K.A.A.K.D.F.I.A.W.L.I.E.H.K.I.T.D}|PEPTIDE2{[O=C(O)CCCCCCCCCCCCCCCCCCC(=O)[*:2]].[gGlu].K.E.K.[O=C(COCCOCCN[*:1])[*:2]]}$PEPTIDE1,PEPTIDE2,20:R3-6:R2$$$V2.0)
–	–	–	–	–	–	–	A (>90% normalised stability)	CCCCCCCCCCCCCCCC(=O)NCCC(=O)NCCCC[C@H](NC(=O)[C@H](CC(=O)O)NC(=O)[C@H](CC(C)C)NC(=O)[C@@H](NC(=O)[C@@H](NC(=O)[C@H](C)NC(=O)[C@H](CC(C)C)NC(=O)[C@H](CCC(=O)O)NC(=O)[C@H](CO)NC(=O)[C@@H](NC(=O)[C@H](Cc1ccccc1)NC(=O)[C@H](CO)NC(=O)CNC(=O)[C@H](CCC(=O)O)NC(=O)C(C)(C)NC(=O)[C@@H](N)Cc1c[nH]cn1)[C@@H](C)O)[C@@H](C)O)[C@@H](C)CC)C(=O)N[C@@H](CCC(N)=O)C(=O)N[C@@H](C)C(=O)N[C@@H](C)C(=O)N[C@@H](CCCNC(=N)N)C(=O)N[C@@H](CC(=O)O)C(=O)N[C@@H](Cc1ccccc1)C(=O)N[C@H](C(=O)N[C@@H](C)C(=O)N[C@@H](Cc1c[nH]c2ccccc12)C(=O)N[C@@H](CC(C)C)C(=O)N[C@@H](CCC(N)=O)C(=O)N[C@@H](CCC(N)=O)C(=O)N[C@@H](Cc1c[nH]cn1)C(=O)N[C@@H](CCCCN)C(=O)N[C@H](C(=O)N[C@H](C(=O)N[C@@H](CC(=O)O)C(=O)O)[C@@H](C)O)[C@@H](C)CC)[C@@H](C)CC [Compound 32] (HELM PEPTIDE1{H.[Aib].E.G.S.F.T.S.E.L.A.T.I.L.D.K.Q.A.A.R.D.F.I.A.W.L.Q.Q.H.K.I.T.D}|PEPTIDE2{[CCCCCCCCCCCCCCCC(=O)[*:2]].[bAla]}$PEPTIDE1,PEPTIDE2,16:R3-2:R2$$$V2.0)
–	–	–	–	–	–	–	A (>90% normalised stability)	CC[C@H](C)[C@H](NC(=O)[C@H](Cc1ccccc1)NC(=O)[C@H](CC(=O)O)NC(=O)[C@H](CCCCNC(=O)COCCOCCNC(=O)COCCOCCNC(=O)[C@H](CCCCN)NC(=O)[C@H](CCC(=O)O)NC(=O)[C@H](CCCCN)NC(=O)CC[C@H](NC(=O)CCCCCCCCCCCCCCCCCCC(=O)O)C(=O)O)NC(=O)[C@H](C)NC(=O)[C@H](C)NC(=O)[C@H](CCC(N)=O)NC(=O)[C@H](CCC(=O)O)NC(=O)[C@H](CC(=O)O)NC(=O)[C@H](CC(C)C)NC(=O)[C@@H](NC(=O)[C@@H](NC(=O)[C@H](C)NC(=O)[C@H](CC(C)C)NC(=O)[C@H](CCC(=O)O)NC(=O)[C@H](CO)NC(=O)[C@@H](NC(=O)[C@H](Cc1ccccc1)NC(=O)[C@@H](NC(=O)CNC(=O)[C@H](CCC(=O)O)NC(=O)C(C)(C)NC(=O)[C@@H](N)Cc1c[nH]cn1)[C@@H](C)O)[C@@H](C)O)[C@@H](C)O)[C@@H](C)CC)C(=O)N[C@@H](C)C(=O)N[C@@H](Cc1c[nH]c2ccccc12)C(=O)N[C@@H](CC(C)C)C(=O)N[C@H](C(=O)N[C@@H](CCC(=O)O)C(=O)N[C@@H](Cc1c[nH]cn1)C(=O)N[C@@H](CCCCN)C(=O)N[C@H](C(=O)N[C@H](C(=O)N[C@@H](CC(=O)O)C(=O)O)[C@@H](C)O)[C@@H](C)CC)[C@@H](C)CC [Compound 67] (H-H[Aib]EGTFTSELATILDEQAAK([AEEA-AEEA-Lys-Glu-Lys-γGlu-C20 diacid])DFIAWLIEHKITD-OH)
